Measurements: patent publication US10961276B2, “Universal antivenom” (CAMRIS International, Inc., priority 2017, dated 2021)
Entries after “also recorded” stand apart in the source; their conditions may differ.

System: PLA2 of five major snake venoms in the U.S. (all major North American crotalid venoms)
Experiment: Cross-species anti-PLA2 activity of phage clone
Assay type: biochemical
Conditions: five major snake venoms in the U.S. (FIG. 4)
Method: Analysis of PLAz activity was conducted using the EnzChek® PLAz Assay Kit (Thermo Fisher Scientific, Waltham, Mass.). Individual phage clones were standardized to […] and diluted in log steps. Diluted phages were incubated with 4.88 μg/ml Western Cottonmouth venom for 30 minutes at RT. Fluorescence emission spectra (excitation at 485 nm, emission at 528 nm) was measured for 20 minutes at 1.0 minute intervals to monitor the reaction. PLA2 activity was determined by comparing the phage inhibited venom to uninhibited venom controls.
Originally consensus peptide for panning target was designed with ˜95% homology of all major North American crotalid PLA2. This cross-species reactivity of the selected phage clone is the best evidence for the potential development of a universal antivenom using phage display technique.

In the case of KLIHGNGVMDEG [Ph.D.-12-7], the “cross-species anti-PLA2 activities” value is reported as “cross-species anti-PLA2 activity; also recorded: showed anti-PLA2 activities across all major North American crotalid venoms”.
